How the values were obtained:
Solubility and stability = assay type: physicochemical
[1] = system: left ventricle of the heart; assay: Intracardiac hemodynamics (intracavitary pressure); assay type: in vivo, rabbits; conditions: versus the composition
central hemodynamics = assay: Central hemodynamics by radiocardiography in patients with myocardial infarction; assay type: in vivo; conditions: as compared to the control
Procedure: (§1) The composition according to the present invention is administered to the patients intramuscularly in a dose of from 25 to 50 mg once every three days.
On the 1th, 10th, 20th and 40th days of the disease the central hemodynamics was determined by the method of radiocardiography.

[2] = system: insufficiency of blood circulation and post-infarctional aneurysm; assay: Clinical outcome: insufficiency of blood circulation and post-infarction aneurysm; assay type: in vivo, patients; conditions: comparison of the composition and inosine
Procedure: as §1
A further dynamic electrocardiographic observation is effected during the first day of injection of the composition (prior to injection and 1 and 2 hours thereafter), then once per 3 and later on--per 5 days. On the 1th, 10th, 20th and 40th days of the disease the central hemodynamics was determined by the method of radiocardiography. On the 10th and 40th days of the illness the contractile capacity of myocardium is assessed by methods of electro- and X-ray kymography. The biochemical control over the effect of the preparation was effected by determination, in dynamics in blood serum, of the products of decomposition of DNA, proline, hydroxyproline, transaminases. There was also analyzed the dynamics of normalization of leukocytosis, ESR (erythrocyte sedimentation rate), disappearance of aneosinophilia. The careful clinical assessment of the effect of the composition was also performed.

[3] = system: zone of necrosis, perinecrotic zone and myocardium regions spaced from the place of infarction; assay: Experimental myocardial infarction in rabbits: histological, histochemical and electron-microscopic study; assay type: in vivo, rabbits of the Chinchilla variety; conditions: for effect on reparative processes in the zone of necrosis / organization of the post-infarction scar: comparison of preparations; for activity of lysis-ensuring enzymes: zone of necrosis and perinecrotic areas
From the text: The experiment on animals has been performed on 419 rabbits of the Chinchilla variety with experimentally-induced myocardial infarction produced by ligation of the front descending branch of the coronary artery.
The effect of the composition according to the present invention on the progress of the experimental myocardial infarction has been studied in comparison with the effect produced by inosine, potassium orotate, vitamin B12 with folic acid and retabolyl.
Histological, histochemical and electron-microscopic methods of investigation have been employed to study the zone of necrosis, perinecrotic zone and myocardium regions spaced from the place of infarction by 1, 3 and 7 days after operation. Furthermore, to determine the contractile ability of myocardium, measurements of intracavitary pressure have been performed. Dynamic electrocardiographic observation over the animals was carried out 7 times during the first day (prior to operation, 15, 30 minutes, 1, 2, 3 and 4 hours after the administration) and during the following days two times a day (before and one hour after the administration).
The study of the total cross-sectional patterns of a rabbit's heart has made it possible to precisely define these zones.
The first group of rabbits has been intramuscularly injected with the composition according to the present invention in the dose of 1 mg/kg in a day.
The second group of rabbits has been injected with inosine in a dose of 30 mg/kg intravenously daily once a day; for the first time 16 hours after the operation and for the last time 2 hours before slaughter (i.e. before the 7th day). The third group of rabbits has been given potassium orotate in a dose of 30 mg/kg in the same sequence as the previous preparation, i.e. up to the 7th day.
The fourth group of animals has been administered vitamin B12 3γ/kg in combination with folic acid in the same sequence.
The fifth group of rabbits has been administered an anabilic hormone of a prolonged action--retabolyl in a dose of 5 mg/kg of the bodyweight 1-2 times intramuscularly up to the 7th day.

Compound: CC(C)=CCCC(C)=CCC(CCCN(C)C)C(=O)O (stereo not shown) [4',5,9-trimethyl-2-(4'-aza-pentyl)decadi-4,8-ene acid]
- solubility in aqueous solutions of strong acids, alkalis, diluted solutions of salts (Solubility and stability): well soluble
- solubility in fats and vegetable oils (Solubility and stability): well soluble
- solubility in organic solvents (ethanol, ether, acetone, gasoline, benzene) (Solubility and stability): well soluble
- solubility in water (Solubility and stability): well soluble
- stability of aqueous solutions (Solubility and stability; aqueous solutions): transparent, stable and can be sterilized by conventional methods
- stability in storage (Solubility and stability; not more than 25° C., advisable period two years): stable in storage

Compound: O=c1[nH]cnc2c1ncn2[C@@H]1O[C@H](CO)[C@@H](O)[C@H]1O [inosine, hypoxanthine riboside]
- effect on formation of compensatory hyperfunction and hypertrophy of extrainfarction areas [1]: more marked effect
- regaining of hemodynamic characteristics (cardiac and systolic indices, beat work of the heart) (central hemodynamics): more pronounced and earlier regaining
- patients in whom effect on state of blood circulation is greatest [2]: most pronounced effect on the state of blood circulation in patients with a repeated myocardial infarction
- cellular infiltration of the zone of necrosis [3]: enhanced cellular infiltration of the zone of infarction
- effect on reparative processes in the zone of necrosis / organization of the post-infarction scar [3]: substantially less pronounced than the effect of the preparation according to the present invention
- activity of lysis-ensuring enzymes [3]: increasing activity of lysis-ensuring enzymes is limited only to the zone of necrosis

Compound: O=C(O)c1cc(O)nc(O)n1 [potassium orotate, 2,6-dihydroxypyrimidine-4-carboxylic acid]
- effect on formation of compensatory hyperfunction and hypertrophy of extrainfarction areas [1]: more marked effect
- activity of lactatedehydrogenase in extra-infarction areas of myocardium [3]: slightly less pronounced effect
- effect on reparative processes in the zone of necrosis / organization of the post-infarction scar [3]: still less pronounced effect
- activity of reactions of pentose-phosphate shunt (glucoso-6-phosphatehydrogenase) ([3]; perinecrotic areas of myocardium): slightly increasing activity
- activity of lysis-ensuring enzymes [3]: slightly increasing activity

Compound: CCCCCCCCCC(=O)O[C@H]1CC[C@H]2[C@@H]3CCC4=CC(=O)CC[C@@H]4[C@H]3CC[C@]12C [retabolyl, nandrolone decanoate]
- activity of lactatedehydrogenase in extra-infarction areas of myocardium [3]: slightly less pronounced effect
- effect on reparative processes in the zone of necrosis / organization of the post-infarction scar [3]: less pronounced

Source: US4495201A, “Pharmaceutical composition and method for treating heart diseases therewith” (Institut Organicheskoi Khimii Imeni N.D. Zelinskogo, priority 1982, dated 1985)
